Experiments:
Aurora Kinase 1 = biological target: T1, Aurora Kinase 1 (Homo sapiens, UniProt Q96GD4); assay: capture ELISA measuring Aurora Kinase 1 autophosphorylation in HT29 colon carcinoma cells; assay type: cell-based; conditions: HT29 cells synchronized for 24 hours, compound treatment 2 hours
T1 construct: endogenous in cells; host or cells: HT29 colon carcinoma cells
Method: To determine the ability of compounds to inhibit Aurora Kinase 1 activity in cells, a capture ELISA measuring Aurora Kinase 1 autophosphorylation was developed in HT29 colon carcinoma cells (Yasui Y, et al 2004). Briefly, 15,000 cells/well were seeded in a 96-well collagen coated plates in RPMI+10% FBS and incubated at 37° C. in 5% CO2 overnight. The following day, the cells were treated with 166 nM nacadazole compounds for 24 hours at 37° C. Synchronized cells were further treated with compounds for 2 hours. Compound dilutions were prepared from 0.1 mM DMSO stocks such that 1.1 μL of each dilution was added to obtain a final concentration ranging from 10 μM to 13 nM in one-third log steps. Following compound treatment, plates were centrifuged at 1000 rpm for 2 minutes and washed twice with 100 μL of cold sterile TBS. Cells were then lysed (100 μL of 150 mM NaCl, 20 mM Tris, pH 7.5, 1 mM EDTA, 1 mM EGTA, 1% Triton-x-100 plus protease and phosphatase inhibitors) by shaking at 4° C. for 1 hour. Cell lysates were transferred to plates pre-coated with anti-phospho mAur1 (Rockland, 600-401-677) and blocked with 5% blocker A in TBS from Meso Scale Discovery. After incubating for 1 hour at RT, plates were washed with 300 μL of TBST for a total of three times. The supernatant was removed and replaced with 50 μL of diluted primary antibody (anti-Aurora Kinase 1, Pharmingen, 611083) at 1:1000 in 2% blocker A in TBS and incubated at room temperature for 1 hour. The antibody buffer was removed from each well and washed three times with 300 μL of cold TBS-T ([…] Tris pH 8.0, 138 mM NaCl, 2.7 mM KCL, 0.05% Tween 20). The wash buffer was replaced with 50 μL of secondary antibody (Sulfa TAG anti-mouse, Meso Scale Discovery) at 1:1000 in 2% blocker A and incubated at room temperature for 1 hour. For the final readout with the Sector 6000, 150 μL of reading buffer T was added and the plates were read immediately.

[1] = biological target: T2, murine Aurora Kinase 1 (mAur1) (Mus musculus, UniProt O70126); assay: murine Aurora Kinase 1 (mAur1) biochemical Scintillation Proximity Assay; conditions: SPA, biotinylated Peptide 830, 1 μM ATP, 12 nM GST-tagged mAur 1 co-expressed with human INCENP
T2 construct: recombinant, GST-tagged mAur 1 (amino acids 67-345) that was co-expressed with human INCENP; GST; made in house
Method: (§1) Using a Scintillation Proximity Assay (SPA) format, the murine Aurora Kinase 1 (mAur1) and murine Aurora Kinase 2 (mAur2) biochemical assay measures the ability of mAur2 to phosphorylate the substrate, biotinylated Peptide 830 (DRT, Protein Sciences). Once radiolabeled by the enzyme, the biotinylated substrate is captured on streptavidin-coated SPA beads and the radioactivity, in proximity to the SPA beads, is measured. For the generation of IC50 curves, the reaction was performed in 96-well isoplates (Wallac 1450-514) under the following conditions: a 10 mM stock solution of compound (in 100% dimethylsulfoxide; DMSO) was diluted 10 fold in 100% DMSO. Compounds were then serially diluted, 1:5, for an eight point dose curve, in 100% DMSO. A volume of 1 μL of the diluted compound was added to the reaction buffer that consisted of 25 mM HEPES pH 7.5, 1 mM MnCl2, 1 mM MgCl2, 1 mM DTT, 0.01% Tween20. A mixture with a final concentration per well of 1 μM cold ATP, 0.1 μCi ^33P-ATP (Amersham AH9968) and 1 μM biotinylated Peptide 830 was then added. The reaction was initiated with the addition of either recombinant, GST-tagged mAur 1 (amino acids 67-345) that was co-expressed with human INCENP (amino acids 704-919) (DRT, Protein Sciences) at a final concentration of 12 nM or N-terminal His-tagged mAur2 (amino acids 98-395; DRT, Protein Sciences) at a final concentration of 20 nM. The final reaction volume in each well was 100 μL and the final compound concentration ranged from 10 μM-[…] in 1% DMSO. The reaction mixture was allowed to incubate for 1-2 hours with gentle agitation at 25° C. To terminate the reaction, streptavidin-coated SPA beads (Amersham RPNQ0007; 50 μL of 0.5 mg beads dissolved in 165 mM EDTA) were then added to each well and incubation proceeded for an additional 15 minutes at 25° C. The plate was then centrifuged for ten minutes at 2000 rpm. Phosphorylation of the peptide substrate was measured using a Wallac 1450 Microbeta Plus Liquid Scintillation Counter.

[2] = biological target: T3, murine Aurora Kinase 2 (mAur2) (Mus musculus, UniProt P97477); assay: murine Aurora Kinase 2 (mAur2) biochemical Scintillation Proximity Assay; conditions: SPA, biotinylated Peptide 830, 1 μM ATP, 20 nM His-tagged mAur2
T3 construct: N-terminal His-tagged mAur2 (amino acids 98-395; DRT, Protein Sciences); His (N); made in house
T3 sequence (P97477 98-395): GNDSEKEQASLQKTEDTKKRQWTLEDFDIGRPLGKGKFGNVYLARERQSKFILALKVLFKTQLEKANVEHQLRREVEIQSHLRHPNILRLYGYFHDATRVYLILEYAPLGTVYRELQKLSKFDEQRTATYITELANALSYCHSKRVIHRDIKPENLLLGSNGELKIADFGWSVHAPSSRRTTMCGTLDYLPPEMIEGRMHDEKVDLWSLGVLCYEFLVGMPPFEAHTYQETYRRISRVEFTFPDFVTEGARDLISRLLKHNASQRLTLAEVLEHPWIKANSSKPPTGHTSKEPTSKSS
Method: as §1

T1 sequence (Q96GD4 whole entry): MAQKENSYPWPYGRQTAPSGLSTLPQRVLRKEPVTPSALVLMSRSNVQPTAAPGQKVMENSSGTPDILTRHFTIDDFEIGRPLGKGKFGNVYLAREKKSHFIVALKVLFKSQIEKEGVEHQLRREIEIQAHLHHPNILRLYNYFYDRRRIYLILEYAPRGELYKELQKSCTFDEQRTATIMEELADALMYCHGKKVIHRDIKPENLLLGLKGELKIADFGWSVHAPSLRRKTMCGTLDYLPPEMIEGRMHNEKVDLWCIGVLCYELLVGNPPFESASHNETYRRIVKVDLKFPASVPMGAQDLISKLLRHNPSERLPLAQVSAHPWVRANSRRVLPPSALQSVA
T2 sequence (O70126 67-345): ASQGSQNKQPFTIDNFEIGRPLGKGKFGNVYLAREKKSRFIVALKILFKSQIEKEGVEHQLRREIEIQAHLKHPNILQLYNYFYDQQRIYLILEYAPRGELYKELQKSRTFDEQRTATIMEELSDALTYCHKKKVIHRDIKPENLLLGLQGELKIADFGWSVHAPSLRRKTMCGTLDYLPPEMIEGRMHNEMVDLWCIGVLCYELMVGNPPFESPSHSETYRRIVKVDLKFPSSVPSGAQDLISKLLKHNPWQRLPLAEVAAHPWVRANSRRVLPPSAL
T2 sequence (Q9NQS7 704-918 partner): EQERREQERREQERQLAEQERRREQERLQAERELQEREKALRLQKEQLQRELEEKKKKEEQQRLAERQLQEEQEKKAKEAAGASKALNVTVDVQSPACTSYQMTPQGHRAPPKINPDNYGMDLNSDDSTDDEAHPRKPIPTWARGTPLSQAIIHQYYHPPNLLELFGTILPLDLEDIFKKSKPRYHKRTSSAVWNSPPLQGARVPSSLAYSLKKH

SMILES	IC50 (Aurora Kinase 1)	IC50 [1]	IC50 [2]
Nc1ncnn2cc(C(=O)NCC(F)(F)F)c(-c3ccc(Nc4nc5ccc(Oc6ccc(F)cc6)c(F)c5[nH]4)cc3)c12 [Example 35, 4-amino-5-(4-{[7-fluoro-6-(4-fluorophenoxy)-1H-benzimidazol-2-yl]amino}phenyl)-N-(2,2,2-trifluoroethyl)pyrrolo[2,1-f][1,2,4]triazine-6-carboxamide]	< 1000 nM		
Nc1ncnn2cc(C(=O)NCC(F)(F)F)c(-c3ccc(Nc4nc5ccc(Oc6ccccc6)c(F)c5[nH]4)cc3)c12 [Example 32, 4-amino-5-{4-[(7-fluoro-6-phenoxy-1H-benzimidazol-2-yl)amino]phenyl}-N-(2,2,2-trifluoroethyl)pyrrolo[2,1-f][1,2,4]triazine-6-carboxamide]	< 1000 nM		
Nc1ncnn2cc(C(=O)NCC(F)(F)F)c(-c3ccc(Nc4nc5ccc(OC(F)(F)F)cc5[nH]4)cc3)c12 [Example 31, 4-amino-N-(2,2,2-trifluoroethyl)-5-(4-{[6-(trifluoromethoxy)-1H-benzimidazol-2-yl]amino}phenyl)pyrrolo[2,1-f][1,2,4]triazine-6-carboxamide]	< 1000 nM		
CNC(=O)c1cn2ncnc(N)c2c1-c1ccc(Nc2nc3ccc(Oc4ccccc4)c(F)c3[nH]2)cc1 [Example 102, 4-amino-5-{4-[(7-fluoro-6-phenoxy-1H-benzimidazol-2-yl)amino]phenyl}-N-methylpyrrolo[2,1-f][1,2,4]triazine-6-carboxamide]	< 1000 nM	< 100 nM	< 100 nM
Nc1ncnn2cc(C(=O)NCC(F)(F)F)c(-c3ccc(Nc4nc5ccc(N6CCCC6)nc5[nH]4)cc3)c12 [Example 20, 4-amino-5-{4-[(5-pyrrolidin-1-yl-3H-imidazo[4,5-b]pyridin-2-yl)amino]phenyl}-N-(2,2,2-trifluoroethyl)pyrrolo[2,1-f][1,2,4]triazine-6-carboxamide]	< 1000 nM		
Nc1ncnn2cc(C(=O)NCC(F)(F)F)c(-c3ccc(Nc4nc5ccc(NC6CCC6)nc5[nH]4)cc3)c12 [Example 47, 4-amino-5-(4-{[5-(cyclobutylamino)-3H-imidazo[4,5-b]pyridin-2-yl]amino}phenyl)-N-(2,2,2-trifluoroethyl)pyrrolo[2,1-f][1,2,4]triazine-6-carboxamide]	< 1000 nM	< 100 nM	< 100 nM
Cc1ccc(Oc2ccc3nc(Nc4ccc(-c5c(C(=O)NCC(F)(F)F)cn6ncnc(N)c56)cc4)[nH]c3n2)cc1C [Example 49, 4-amino-5-(4-{[5-(3,4-dimethylphenoxy)-3H-imidazo[4,5-b]pyridin-2-yl]amino}phenyl)-N-(2,2,2-trifluoroethyl)pyrrolo[2,1-f][1,2,4]triazine-6-carboxamide]		< 100 nM	< 100 nM

More lines, now with the values ahead:

IC50 (Aurora Kinase 1)	IC50 [1]	IC50 [2]	SMILES
< 1000 nM			CC(C)(C)c1ccc2nc(Nc3ccc(-c4c(C(=O)NCC(F)(F)F)cn5ncnc(N)c45)cc3)[nH]c2c1 [Example 10, 4-amino-5-{4-[(6-tert-butyl-1H-benzimidazol-2-yl)amino]phenyl}-N-(2,2,2-trifluoroethyl)pyrrolo[2,1-f][1,2,4]triazine-6-carboxamide]
< 1000 nM	< 100 nM	< 100 nM	Nc1ncnn2cc(C(=O)NCC(F)(F)F)c(-c3ccc(Nc4nc5cc6c(cc5[nH]4)OC(F)(F)O6)cc3)c12 [Example 17, 4-amino-5-{4-[(2,2-difluoro-5H-[1,3]dioxolo[4,5-f]benzimidazol-6-yl)amino]phenyl}-N-(2,2,2-trifluoroethyl)pyrrolo[2,1-f][1,2,4]triazine-6-carboxamide]
< 1000 nM	< 100 nM	< 100 nM	CC(C)(C)NC(=O)c1cn2ncnc(N)c2c1-c1ccc(Nc2nc3cc(F)cc(F)c3[nH]2)cc1 [Example 72, 4-amino-N-(tert-butyl)-5-{4-[(5,7-difluoro-1H-benzimidazol-2-yl)amino]phenyl}pyrrolo[2,1-f][1,2,4]triazine-6-carboxamide]
	< 100 nM	< 100 nM	Nc1ncnn2cc(C(=O)O)c(-c3ccc(Nc4nc5ccc(C(F)(F)F)nc5[nH]4)cc3)c12 [Example 119]
	< 100 nM	< 100 nM	CN(C)C(=O)c1cn2ncnc(N)c2c1-c1ccc(Nc2nc3cc(F)cc(F)c3[nH]2)cc1 [Example 74, 4-amino-5-{4-[(5,7-difluoro-1H-benzimidazol-2-yl)amino]phenyl}-N,N-dimethylpyrrolo[2,1-f][1,2,4]triazine-6-carboxamide]
	< 100 nM	< 100 nM	Nc1ncnn2cc(C(=O)NCC(F)(F)F)c(-c3ccc(Nc4nc5ccccc5[nH]4)cc3)c12 [Example 1, 4-amino-5-[4-(1H-benzimidazol-2-ylamino)phenyl]-N-(2,2,2-trifluoroethyl)pyrrolo[2,1-f][1,2,4]triazine-6-carboxamide]
	< 100 nM	< 100 nM	Nc1ncnn2cc(C(=O)N3CCOCC3)c(-c3ccc(Nc4nc5cc(F)cc(F)c5[nH]4)cc3)c12 [Example 76, 5-{4-[(5,7-difluoro-1H-benzimidazol-2-yl)amino]phenyl}-6-(morpholin-4-ylcarbonyl)pyrrolo[2,1-f][1,2,4]triazin-4-amine]

From patent publication US8338594B2, “Pyrrolotriazine derivatives useful for treating cancer through inhibition of aurora kinase” (Bayer HealthCare LLC, priority 2005, dated 2012)
